Earlier results in patent US6444700B1, “Product and method to reduce stress induced immune suppression” (Abbott Laboratories, priority 1998, dated 2002).

In the case of `CC1=C(/C=C/C(C)=C/C=C/C(C)=C/CO)C(C)(C)CCC1` [Vitamin A, retinol], the “sustained daily intake at which signs of toxicity usually appear” value (foods and supplements) is listed as “exceeding 15,000 RE”.

In the case of `[Se]` [selenium], the “intake from foods resulting in fingernail changes and hair loss” value (seleniferous zone of China) is listed as “approximately 5 mg per day”.

For `CC1=C(/C=C/C(C)=C/C=C/C(C)=C/C=C/C=C(C)/C=C/C=C(C)/C=C/C2=C(C)CCCC2(C)C)C(C)(C)CCC1` [β-Carotene], the “toxicity when given in very high doses” value (compared with vitamin A) is listed as “not toxic”.
